Data reported in patent publication US20230265068A1, “TRANSIENT RECEPTOR POTENTIAL CANONICAL 3 INHIBITORS AND METHODS OF USE THEREOF” (University of Tennessee Research Foundation, priority 2020, published 2023).

What was measured:
rTRPV1 = molecular target: T1, rTRPV1 (Rattus norvegicus, UniProt O35433); assay: whole-cell patch clamp selectivity, HEK 293 cells overexpressing rTRPV1; type: cell-based; details: HEK293, with agonist, solutions without Ca2+, read-out: % of the current of rTRPV1 inhibited
T1 construct: expressed in transfected cells; host or cells: HEK293, transient transfection, pMO vector
T1 sequence (O35433 whole entry): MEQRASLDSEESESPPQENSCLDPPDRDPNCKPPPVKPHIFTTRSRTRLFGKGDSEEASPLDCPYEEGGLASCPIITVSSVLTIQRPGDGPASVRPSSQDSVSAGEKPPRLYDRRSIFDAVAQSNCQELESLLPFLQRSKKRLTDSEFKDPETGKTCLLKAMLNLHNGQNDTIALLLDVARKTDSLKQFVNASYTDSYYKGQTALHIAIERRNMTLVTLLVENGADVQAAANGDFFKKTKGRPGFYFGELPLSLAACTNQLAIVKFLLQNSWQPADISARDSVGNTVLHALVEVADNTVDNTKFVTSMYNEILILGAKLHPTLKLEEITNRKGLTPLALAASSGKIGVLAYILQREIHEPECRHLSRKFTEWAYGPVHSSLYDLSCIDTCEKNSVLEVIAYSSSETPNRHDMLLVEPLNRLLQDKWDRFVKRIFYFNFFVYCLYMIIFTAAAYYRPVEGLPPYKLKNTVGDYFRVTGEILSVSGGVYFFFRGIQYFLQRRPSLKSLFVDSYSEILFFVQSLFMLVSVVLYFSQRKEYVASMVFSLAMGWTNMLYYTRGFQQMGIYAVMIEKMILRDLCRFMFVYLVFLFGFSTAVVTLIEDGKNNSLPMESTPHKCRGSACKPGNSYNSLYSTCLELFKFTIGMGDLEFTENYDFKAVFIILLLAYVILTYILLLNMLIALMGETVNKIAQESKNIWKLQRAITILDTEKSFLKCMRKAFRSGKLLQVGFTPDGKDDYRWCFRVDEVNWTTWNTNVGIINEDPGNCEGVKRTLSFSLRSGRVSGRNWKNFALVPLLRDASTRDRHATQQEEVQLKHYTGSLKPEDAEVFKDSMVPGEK
Description: (§1) Human embryonic kidney 293 (HEK293; catalog number CRL-1573) cells were cultured in Dulbecco's modified Eagle's medium (Invitrogen) supplemented with 10% fetal bovine serum and 1% penicillin-streptomycin at 37° C. and 5% CO2. Constructs cloned in pMO (a pcDNA3-modified vector) were co-transfected with GFP-pMO, using Lipofectamine 2000 (Invitrogen) according to the manufacturer's instructions. Macroscopic currents in the whole-cell patch clamp configuration were recorded 18-24 h post-transfection. The extracellular solution contained 140 mM NaCl, 6 mM KCl, 2 mM MgCl2, 10 mM HEPES, and 10 mM glucose (pH 7.4). Pipettes were made of borosilicate glass (outer diameter, 1.5 mm; inner diameter, 1.10 mm; Sutter Instruments) and fire-polished with a resistance between 2.8 and 4.0 megaohms when filled with an intracellular solution that contained 140 mM CsCl, 5 mM EGTA, and 10 mM HEPES, pH 7.2. Currents were recorded with a Multiclamp 700B amplifier (Molecular Devices) using a 1-s ramp from −100 to 100 mV. […] Data were acquired with a sampling rate of 20 kHz, low-pass filtered (10 kHz), and analyzed offline using Clampfit v10.4.2.0 (Molecular Devices). […]

mmTRPC6 = molecular target: T2, mmTRPC6 (Mus musculus, UniProt Q61143); assay: whole-cell patch clamp selectivity, HEK 293 cells overexpressing mmTRPC6; type: cell-based; details: HEK293, with agonist, solutions without Ca2+, read-out: % of the current of hTRPC6 inhibited
T2 construct: expressed in transfected cells; host or cells: HEK293, transient transfection, pMO vector
T2 sequence (Q61143 1-930): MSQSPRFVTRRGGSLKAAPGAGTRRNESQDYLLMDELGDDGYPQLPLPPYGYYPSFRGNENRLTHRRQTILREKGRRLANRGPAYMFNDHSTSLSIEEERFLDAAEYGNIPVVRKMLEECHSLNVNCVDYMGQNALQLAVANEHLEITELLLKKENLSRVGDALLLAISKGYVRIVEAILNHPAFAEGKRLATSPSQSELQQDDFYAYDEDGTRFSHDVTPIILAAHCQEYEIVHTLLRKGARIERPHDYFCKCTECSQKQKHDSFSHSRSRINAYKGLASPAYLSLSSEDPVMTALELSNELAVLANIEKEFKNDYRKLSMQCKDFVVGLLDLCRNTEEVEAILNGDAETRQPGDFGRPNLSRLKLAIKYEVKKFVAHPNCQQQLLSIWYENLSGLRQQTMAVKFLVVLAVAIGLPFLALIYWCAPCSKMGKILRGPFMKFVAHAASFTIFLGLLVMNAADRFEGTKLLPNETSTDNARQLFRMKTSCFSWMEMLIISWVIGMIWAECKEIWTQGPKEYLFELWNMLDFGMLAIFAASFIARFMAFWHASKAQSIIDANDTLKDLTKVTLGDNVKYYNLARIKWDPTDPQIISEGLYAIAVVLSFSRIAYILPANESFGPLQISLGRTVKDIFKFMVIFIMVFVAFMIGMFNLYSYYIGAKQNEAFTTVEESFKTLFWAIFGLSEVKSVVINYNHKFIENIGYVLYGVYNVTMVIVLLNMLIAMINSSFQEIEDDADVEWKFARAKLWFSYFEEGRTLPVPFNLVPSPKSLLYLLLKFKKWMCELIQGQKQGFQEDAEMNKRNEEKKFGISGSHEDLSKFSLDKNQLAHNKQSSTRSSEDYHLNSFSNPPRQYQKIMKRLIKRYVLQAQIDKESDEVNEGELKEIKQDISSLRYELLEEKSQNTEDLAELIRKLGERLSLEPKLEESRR
Description: as §1

[1] = metabolic stability in human liver microsomes; type: in vitro ADME; details: human, microsomes
Description: The metabolic stability of compound 22 was tested prior to the next phase of in vivo study. […] The maximum tolerated dose (MTD) study was subsequently performed to investigate its in vivo toxicity (FIGS. 4A and 4B). The second major limitation of Pyr3 is its toxicity due to its alkylating tail moiety. While replacing only the fast-metabolizing head ester group in Pyr3 with a stable amide (compound 79) improved metabolic stability, a single IP injection of compound 79 at 200 mg/kg killed all mice within 24 h.

With `CCNC(=O)c1cnn(-c2ccc(-n3ccc(Cl)c(Cl)c3=O)cc2)c1C(F)(F)F` [Compound 22] the inhibition at 10 µM (rTRPV1) was < 5%, the inhibition at 10 µM (mmTRPC6) was ~39% and the half-life [1] was > 4 h.
